Laboratory results from PubChem BioAssay (NCI).
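Dose response: 5 concentrations. Exposure: 48 h. Format: 96-well plates. Endpoint: linear interpolation; highest concentration if not reached. GI50: concentration for 50% inhibition of growth. TGI marks complete inhibition of growth.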

Columns and labels:
Assay in all cases: DTP human tumour cell line panel, 48 h
[1] = system: UACC-257 melanoma
[2] = system: A498 renal
[3] = system: SF-539 CNS
[4] = system: RXF 393 renal
[5] = system: SK-MEL-2 melanoma
[6] = system: ACHN renal
[7] = system: TK-10 renal
[8] = system: SNB-19 CNS
[9] = system: K-562 leukemia
[10] = system: COLO 205 colon

In the case of `CSC(=S)NNC(=O)c1ccncc1`, the TGI [1] was 56.7 µM, the TGI [2] was over 100 µM and the TGI [3] was 48.9 µM. The TGI [4] was 31.8 µM, the TGI [5] was 33.9 µM and the TGI [6] was 36.2 µM. It also gave a TGI [7] of 75.6 µM, a TGI [8] of 53.1 µM and a TGI [9] of 38.5 µM. The TGI [10] was over 100 µM.

`COc1cccc2c1c1nc3cc(C)c(C)cc3nc1n2CCN(C)C` gave a GI50 [1] of 1.9 µM, a TGI [1] of 4.74 µM and a GI50 [2] of 0.533 µM. It also gave a TGI [2] of 1.9 µM, a GI50 [3] of 1.92 µM and a TGI [3] of 5.48 µM. The GI50 [4] was 1590 nM, the TGI [4] was 3.54 µM and the GI50 [5] was 1.85 µM. For the same molecule, the TGI [5] was 4.39 µM, the GI50 [6] was 0.433 µM and the TGI [6] was 10.3 µM. For the same molecule, the GI50 [7] was 2.95 µM, the TGI [7] was 11.5 µM and the GI50 [8] was 2.04 µM. The TGI [8] was 14 µM, the GI50 [9] was 0.982 µM and the TGI [9] was 9.12 µM. It also gave a GI50 [10] of 0.767 µM and a TGI [10] of 3.31 µM.

In the case of `CN=S(=O)(C[C@]1(O)CC2OC1C1OC(C)(C)OC21)c1ccccc1` (stereo not given in full), the TGI [1] was over 100 µM, the TGI [2] was over 100 µM and the TGI [3] was over 100 µM. For the same molecule, the TGI [4] was over 100 µM, the TGI [5] was over 100 µM and the TGI [6] was over 100 µM. It also gave a TGI [7] of over 100 µM, a TGI [8] of over 100 µM and a TGI [9] of over 100 µM. The TGI [10] was over 100 µM.

With `COc1ccc(OC)c2cc(C3(C)SCCCS3)ccc12` the TGI [1] was over 100 µM, the TGI [2] was over 100 µM and the TGI [3] was over 100 µM. The TGI [4] was 77 µM, the TGI [5] was over 100 µM and the TGI [6] was over 100 µM. The TGI [7] was over 100 µM, the TGI [8] was over 100 µM and the TGI [9] was over 100 µM. The TGI [10] was over 100 µM.

For `COc1cc2c(cc1OC)[C@@]1(C)C(=O)c3cc4c(cc3[C@H]1N(C)C2=O)OCO4`, the GI50 [1] was 23.7 µM, the TGI [1] was 91.9 µM and the GI50 [2] was 18.6 µM. For the same molecule, the TGI [2] was 90.7 µM, the GI50 [3] was 24 µM and the TGI [3] was 75.7 µM. It also gave a GI50 [4] of 26900 nM, a TGI [4] of over 100 µM and a GI50 [5] of 40.4 µM. For the same molecule, the TGI [5] was over 100 µM, the GI50 [6] was 52.2 µM and the TGI [6] was over 100 µM. The GI50 [7] was 67.3 µM, the TGI [7] was over 100 µM and the GI50 [8] was over 100 µM. It also gave a TGI [8] of over 100 µM, a GI50 [9] of 47.6 µM and a TGI [9] of over 100 µM. It also gave a GI50 [10] of over 100 µM and a TGI [10] of over 100 µM.

With `O=C(/C=C\Sc1nccc(C(F)(F)F)n1)c1ccc(Br)cc1` the GI50 [1] was 56.4 µM, the TGI [1] was over 100 µM and the GI50 [2] was over 100 µM. The TGI [2] was over 100 µM, the GI50 [3] was 23.3 µM and the TGI [3] was 69.4 µM. It also gave a GI50 [4] of 18500 nM, a TGI [4] of 40.9 µM and a GI50 [5] of over 100 µM. The TGI [5] was over 100 µM, the GI50 [6] was 15.9 µM and the TGI [6] was 29.7 µM. For the same molecule, the GI50 [7] was 26.4 µM, the TGI [7] was 59.6 µM and the GI50 [8] was 36.9 µM. It also gave a TGI [8] of over 100 µM, a GI50 [9] of 15 µM and a TGI [9] of 44.1 µM. The GI50 [10] was 18.6 µM and the TGI [10] was 36.5 µM.

With `COc1ccc(-c2nc(-c3nc4cc(C)c(C)cc4[nH]3)cc3c2[nH]c2ccccc23)cc1` the GI50 [1] was 3.47 µM, the TGI [1] was 14.4 µM and the GI50 [2] was 14.4 µM. It also gave a TGI [2] of 42.4 µM, a GI50 [3] of 1.72 µM and a TGI [3] of 4.24 µM. For the same molecule, the GI50 [4] was 1720 nM, the TGI [4] was 3.66 µM and the GI50 [5] was 3.28 µM. The TGI [5] was 8.25 µM, the GI50 [6] was 2.6 µM and the TGI [6] was 27.9 µM. It also gave a GI50 [7] of 7.85 µM, a TGI [7] of over 100 µM and a GI50 [8] of 68.9 µM. It also gave a TGI [8] of over 100 µM, a GI50 [9] of 3.36 µM and a TGI [9] of 20.9 µM. It also gave a GI50 [10] of 1.79 µM and a TGI [10] of 3.8 µM.

For `Nc1nc(N)c(-c2ccc(Cl)cc2)c(CCC(=O)Nc2cccc(C(F)(F)F)c2)n1`, the TGI [1] was over 100 µM, the TGI [2] was over 100 µM and the TGI [3] was over 100 µM. It also gave a TGI [4] of over 100 µM, a TGI [5] of over 100 µM and a TGI [6] of over 100 µM. For the same molecule, the TGI [7] was over 100 µM, the TGI [8] was over 100 µM and the TGI [9] was over 100 µM. For the same molecule, the TGI [10] was over 100 µM.

`COc1ccc2c(c1)Cc1c-2c(NN)nc2ccccc12` showed a GI50 [1] of 53.7 µM, a TGI [1] of over 100 µM and a GI50 [2] of over 100 µM. It also gave a TGI [2] of over 100 µM, a GI50 [3] of 36.3 µM and a TGI [3] of over 100 µM. For the same molecule, the GI50 [4] was 30500 nM, the TGI [4] was over 100 µM and the GI50 [5] was 33.1 µM. For the same molecule, the TGI [5] was over 100 µM, the GI50 [6] was 44.7 µM and the TGI [6] was over 100 µM. For the same molecule, the GI50 [7] was 57.3 µM, the TGI [7] was over 100 µM and the GI50 [8] was 31.3 µM. For the same molecule, the TGI [8] was over 100 µM, the GI50 [9] was 6.65 µM and the TGI [9] was 85.1 µM. The GI50 [10] was 22.1 µM and the TGI [10] was over 100 µM.

`COC(=O)Nc1nc2ccc(Oc3ccc(NC(=O)Nc4cccc(Cl)c4)cc3)cc2[nH]1` showed a GI50 [1] of 1.7 µM, a TGI [1] of 19.5 µM and a GI50 [2] of 1.64 µM. It also gave a TGI [2] of 13.8 µM, a GI50 [3] of 0.658 µM and a TGI [3] of 6.85 µM. The GI50 [4] was 445 nM, the TGI [4] was 2.34 µM and the GI50 [5] was 1.07 µM. The TGI [5] was 8.06 µM, the GI50 [6] was 2.23 µM and the TGI [6] was over 18.6 µM. The GI50 [7] was 4 µM, the TGI [7] was 11.6 µM and the GI50 [8] was 2.61 µM. It also gave a TGI [8] of over 25 µM, a GI50 [9] of 0.175 µM and a TGI [9] of over 25 µM. The GI50 [10] was 0.916 µM and the TGI [10] was 3.07 µM.

In the case of `C/C(=C\c1c[nH]c2ccccc12)[N+](=O)[O-]`, the GI50 [1] was 4.89 µM, the TGI [1] was 17.1 µM and the GI50 [2] was 14.9 µM. It also gave a TGI [2] of 29.6 µM, a GI50 [3] of 3.7 µM and a TGI [3] of 15.2 µM. For the same molecule, the GI50 [4] was 2910 nM, the TGI [4] was 11.5 µM and the GI50 [5] was 6.24 µM. For the same molecule, the TGI [5] was 20.8 µM, the GI50 [6] was 4.36 µM and the TGI [6] was 16.6 µM. It also gave a GI50 [7] of 10.8 µM, a TGI [7] of 24.5 µM and a GI50 [8] of 5.82 µM. For the same molecule, the TGI [8] was 20 µM, the GI50 [9] was 4.03 µM and the TGI [9] was 16.5 µM. It also gave a GI50 [10] of 5.06 µM and a TGI [10] of 17.4 µM.

`CO[C@H]1CC[C@@]2(C)C(=CC[C@H]3[C@@H]4C[C@H](O)C[C@@]4(C)CC[C@@H]32)C1` was tested, and the GI50 [1] was 4.89 µM, the TGI [1] was 17.9 µM and the GI50 [2] was 1.32 µM. For the same molecule, the TGI [2] was 9.25 µM, the GI50 [3] was 3.01 µM and the TGI [3] was 8.64 µM. For the same molecule, the GI50 [4] was 2490 nM, the TGI [4] was 6.57 µM and the GI50 [5] was 2.74 µM. The TGI [5] was 6.83 µM, the GI50 [6] was 8.2 µM and the TGI [6] was 28.3 µM. For the same molecule, the GI50 [7] was 4.74 µM, the TGI [7] was 17.9 µM and the GI50 [8] was 4.86 µM. It also gave a TGI [8] of 22.2 µM, a GI50 [9] of 2.78 µM and a TGI [9] of 16 µM. For the same molecule, the GI50 [10] was 5.02 µM and the TGI [10] was 16.2 µM.

`C=C[C@]1(C)C=C2C(=O)[C@@]3(O)OC(=O)[C@@]4(CCCC(C)(C)[C@H]34)[C@@]2(O)CC1` gave a GI50 [1] of 1.33 µM, a TGI [1] of 2.91 µM and a GI50 [2] of 1.51 µM. For the same molecule, the TGI [2] was 3.6 µM, the GI50 [3] was 1.37 µM and the TGI [3] was 2.76 µM. The GI50 [4] was 608 nM, the TGI [4] was 1.91 µM and the GI50 [5] was 2.27 µM. It also gave a TGI [5] of 5.02 µM, a GI50 [6] of 1.12 µM and a TGI [6] of 2.35 µM. For the same molecule, the GI50 [7] was 1.49 µM, the TGI [7] was 2.92 µM and the GI50 [8] was 6.33 µM. For the same molecule, the TGI [8] was 19.7 µM, the GI50 [9] was 2.13 µM and the TGI [9] was 10.1 µM. It also gave a GI50 [10] of 1.61 µM and a TGI [10] of 2.98 µM.

`O=C(CC1(O)C(=O)Nc2c(Cl)cc(Cl)cc21)c1ccc2ccccc2c1` (stereo not given) gave a TGI [1] of 27.1 µM, a TGI [2] of 24.8 µM and a TGI [3] of 21 µM. For the same molecule, the TGI [4] was 20.9 µM, the TGI [5] was 16.3 µM and the TGI [6] was 28.7 µM. For the same molecule, the TGI [7] was 27.9 µM, the TGI [8] was 25.4 µM and the TGI [9] was 18.3 µM. The TGI [10] was 21.6 µM.
